From paper PMC11087268, “A folate inhibitor exploits metabolic differences in Pseudomonas aeruginosa for narrow-spectrum targeting” (Nature Microbiology, 2024)
Values after ≈ are worked out from the molar mass of the structure shown. Values joined by “and” are separate entries in the source; they are usually repeats but may differ in a detail not shown here. Identical values can stand only once.

Experiments:
P. aeruginosa PA14 [1] = assay type: cell-based, Pseudomonas aeruginosa; conditions: PA14, 4× MIC plates
[2] = test system: Escherichia coli NCM-3722; experiment: MIC against E. coli NCM-3722 in LB broth; assay type: cell-based; conditions: NCM3722, 16 h, 37 °C, OD600
Protocol: Overnight cultures were diluted 1:150 in LB broth and added to a 96-well plate. Antibiotics were serially diluted 1:2 and added to columns of the 96-well plate and grown at 37 °C with continuous shaking. Cell growth was measured using optical density at 600 nm (OD600). MIC assays were performed in either BioTek Synergy HT or Tecan InfiniteM200 Pro microplate readers.

K. pneumoniae = experiment: Growth with or without TMI supplementation and fluorofolin, K. pneumoniae; assay type: cell-based, Klebsiella pneumoniae; conditions: fluorofolin 2X MIC
Protocol: (§1) Where listed, growth media were prepared according manufacturer recommendations: LB broth and LB broth supplemented with 0.3 mM thymine (BD Biosciences 244610, Alfa Aesar A15879), 0.3 mM methionine (Sigma-Aldrich M9625), 0.3 mM inosine (EMD Millipore 4060), cation-adjusted Mueller–Hinton II broth (CAMHB) (BD 212322) or 0.3 mM thymidine (Sigma-Aldrich T1895), Gutnick minimal media (1.0 g l^−1 K2SO4, 13.5 g l^−1 K2HPO4, 4.7 g l^−1 KH2PO4, 0.1 g l^−1 MgSO4·7H2O, 10 mM NH4Cl as a nitrogen source and 0.4% w/v glucose as a carbon source)[65].
(§2) Extended Data Fig. 3 TMI supplementation can also rescue other species from fluorofolin DHFR inhibition. […] (f) P. aeruginosa PA14 or E. coli lptd4213 treated with fluorofolin 50 μg/mL in the presence or absence of 0.3 mM thymidine. (g) E. coli lptd4213 treated with fluorofolin 50 μg/mL and SMX (78.1 μg/mL) in the presence or absence of 0.3 mM thymidine or 0.3 mM TMI supplementation, Curves represent average optical at 600 nm (OD600) of 2 biological replicates. Means are shown. Source data

[3] = test system: Salmonella typhimurium CMCC 50115; experiment: MIC (WuXi, Mueller–Hinton broth) against S. typhimurium; assay type: cell-based; conditions: Salmonella enterica, performed by WuXi
Protocol: Bacterial colonies (4–8) of strains of interest were vortexed in saline and adjusted to an OD600 of 0.2. Strains were diluted 1:200 into CAMHB media in 96-well plates. Antibiotics were serially diluted 1:3 in DMSO, and 1 μl of each dilution was added to bacteria. The plates were incubated for 18–20 h at 37 °C before observation.

E. coli MG1655 = experiment: Growth competition assay, c.f.u. of E. coli MG1655; assay type: cell-based, Escherichia coli; conditions: for E.coli MG1655 CFU/mL: Panel C
Protocol: Cultures of each species were grown separately as well as being mixed 1:1. […] The number of colonies on Pseudomonas Selection Agar plates is reported as the c.f.u. ml^−1 of P. aeruginosa. To calculate c.f.u.s ml^−1 of E. coli MG1655, c.f.u.s ml^−1 were determined from LB agar plates and the c.f.u.s ml^−1 of P. aeruginosa were subtracted from these values.

P. aeruginosa PA14 [4] = experiment: Colony-forming units counting after antibiotic treatment; assay type: cell-based, Pseudomonas aeruginosa; conditions: for PA14 CFU/mL, Mean: 2× MIC (fluorofolin 6.2, TMP 250, polymixin B 4 μg ml^−1)
Protocol: P. aeruginosa PA14 overnight cultures were diluted 1:100 and grown to exponential phase (OD600 = 0.4–0.6). Cultures were diluted 1:10 and treated with antibiotic. At each time point, 150 μl of culture was removed, serial diluted 1:10 six times and plated onto LB agar plates. Plates were grown overnight at 37 °C, after which visible colonies were counted. C.f.u.s ml^−1 are reported from dilutions in which ~10–100 single colonies were visible.

S. epidermidis = experiment: Growth with or without TMI supplementation and fluorofolin, S. epidermidis; assay type: cell-based, Staphylococcus epidermidis; conditions: fluorofolin 2X MIC
Protocol: as §1, §2

E. coli lptD4213 = experiment: Growth of E. coli lptd4213 with fluorofolin (with or without SMX) and thymidine or TMI; assay type: cell-based, Escherichia coli; conditions: fluorofolin 50 μg/mL, 0.3 mM thymidine
Protocol: as §1, §2

Nc1nc(N)c2c(ccc3c2ccn3Cc2ccnc(F)c2)n1 [fluorofolin]
resistance frequency compared between antibiotics (P. aeruginosa PA14 [1]): significantly lower resistance frequency than meropenem | MIC [2]: 0.312 µg/mL | rescue of growth inhibition by TMI supplementation (K. pneumoniae): could also be rescued from fluorofolin growth inhibition by TMI supplementation | MIC [3]: 0.03 µg/mL (≈ 0.0973 µM) | growth in co-culture with TMI supplementation (E. coli MG1655; PA14 : E. coli MG1655 1:1, 50 μg ml^−1 fluorofolin, selective plating): but not E. coli | E.coli MG1655 CFU/mL (E. coli MG1655; Fluorofolin): 10 CFU/mL | E.coli MG1655 CFU/mL (E. coli MG1655; Fluorofolin + TMI): 1050000 CFU/mL and 1500000 CFU/mL and 1350000 CFU/mL | type of antibacterial activity (P. aeruginosa PA14 [4]; PA14, rich media): bacteriostatic | PA14 CFU/mL, Mean (P. aeruginosa PA14 [4]; Time 0 h): 197000 CFU/mL | PA14 CFU/mL, Mean (P. aeruginosa PA14 [4]; Time 1 h): 211000 CFU/mL | PA14 CFU/mL, Mean (P. aeruginosa PA14 [4]; Time 2 h): 171000 CFU/mL | PA14 CFU/mL, Mean (P. aeruginosa PA14 [4]; Time 4 h): 206667 CFU/mL | rescue of growth inhibition by TMI supplementation (S. epidermidis): could also be rescued from fluorofolin growth inhibition by TMI supplementation | rescue of growth inhibition by thymidine supplementation alone (E. coli lptD4213): Rescue from fluorofolin inhibition was also shown
